Experimental data reported in patent US4435391A, “Dibenzoxazepine derivative, and pharmaceutical composition comprising the same” (Chugai Seiyaku Kabushiki Kaisha, priority 1980, dated 1984).
Like-named read-outs stand apart in the source and are kept apart here.

Experiments:
[1] = system: lipid peroxide level (TBA) of blood; assay: Lipid peroxide (TBA) level of blood in alloxan-treated mice (Experiment 1); format: in vivo, male mice of ddY strain; conditions: Table 1, 300 mg/kg orally, 22 h after alloxan 75 mg/kg i.v., blood drawn 48 h after alloxan, vs untreated mice; for inhibition in vivo at 300 mg/kg: Mus musculus, po, read-out: Percent Reduction TBA (x ± S.E.)
Description: (§1) Male mice of ddY strain weighing between 25 and 30 g were divided into groups of 10 members each and administered intravenously 75 mg/kg of alloxan. Twenty-two hours later, each mouse was administered orally 300 mg/kg of a test compound of this invention as suspended in 1% gum arabic. […] The lipid peroxide level (TBA) of blood was determined with Lipoperoxide-Test Wako (Wako Pure Chemical Industries, Ltd., Japan). The level of blood sugar (BG) was determined with New Blood Sugar Test (Berlinger Mannheim AG., West Germany). […] As a positive control, tocopherol was used.

[2] = system: triglyuride (TG) level of plasma; assay: Plasma triglyceride (TG) in Triton-injected mice (Experiment 2); format: in vivo, mice of ddY strain; conditions: Table 2, 150 mg/kg immediately and 8 hours after Triton WR-1399 500 mg/kg i.v., blood drawn 24 h after Triton; for inhibition in vivo: Mus musculus, iv, read-out: Percent Reduction TG (x ± S.E.)
Description: (§2) The mice of ddY strain weighing between 25 and 30 g were fasted overnight and then Triton WR-1399(500 mg/kg) (Ruger Chemicals Co.) was intravenously injected into the mice. Immediately and 8 hours after the injection, each mouse was administered 150 mg/kg of a test compound of this invention as suspended in 1% aqueous methylcellulose.
(§3) 24 Hours after the injection of Triton, the blood was drawn from the heart. The cholesterol (TC) and triglyuride (TG) levels of plasma were determined with RaBASuper (Chugai Seiyaku K.K., Japan).
(§4) As a positive control, chlofibrate were used.

[3] = system: platelets (platelet rich plasma); assay: Inhibition of platelet aggregation in platelet rich plasma (Experiment 3); format: cell-based, SD strain rats; conditions: for inhibition at 100 µM: Rattus norvegicus, Platelet
Description: Platelet rich plasma samples were prepared from the blood of SD strain rats, and to 0.5 ml of the samples, test compounds in the form of a solution in dimethyl sulfoxide (DMSO) were added in such an amount that the concentration of the compounds in the mixture was 1×10^-4 M. The assay media containing aspirin were used as a control. After incubation for one minute, arachidonic acid, collagen and adenosine diphosphate (ADP) were added to the mixture in concentrations of 1×10^-4 M, 1.5×10^-3 M and 1×10^-6 M, respectively, to aggregate the platelets. The aggregation level was determined with an aggregometer. CORNING-EEL MODEL 16P (Manufactured by Evans Electro Selenium Ltd.) and the percent inhibition of platelets was calculated from the following equation: [formula]

[4] = system: cholesterol (TC) level of plasma; assay: Plasma cholesterol (TC) in Triton-injected mice (Experiment 2); format: in vivo, mice of ddY strain; conditions: Table 2, 150 mg/kg immediately and 8 hours after Triton WR-1399 500 mg/kg i.v., blood drawn 24 h after Triton; for inhibition in vivo: Mus musculus, iv, read-out: Percent Reduction TC (x ± S.E.)
Description: as §2, §3, §4

[5] = system: level of blood sugar (BG); assay: Blood sugar (BG) level in alloxan-treated mice (Experiment 1); format: in vivo, male mice of ddY strain; conditions: Table 1, 300 mg/kg orally, 22 h after alloxan 75 mg/kg i.v., blood drawn 48 h after alloxan, vs untreated mice
Description: as §1

[6] = Table 3 (own numbering), compound 1×10^-4 M, aggregation by ADP 1×10^-6 M, read-out: Percent Inhibition of Aggregation, ADP
[7] = Table 3 (own numbering), compound 1×10^-4 M, aggregation by arachidonic acid 1×10^-4 M, read-out: Percent Inhibition of Aggregation, Arachidonic acid
[8] = Table 3 (own numbering), compound 1×10^-4 M, aggregation by collagen 1.5×10^-3 M, read-out: Percent Inhibition of Aggregation, Collagen
[9] = Table 3 (own numbering), compound 1×10^-4 M, aggregation by ADP 1×10^-6 M
[10] = Table 3 (own numbering), compound 1×10^-4 M, aggregation by arachidonic acid 1×10^-4 M
[11] = Table 3 (own numbering), compound 1×10^-4 M, aggregation by collagen 1.5×10^-3 M

| Molecule | inhibition at 100 µM [3, 6] [%] | inhibition at 100 µM [3, 7] [%] | inhibition at 100 µM [3, 8] [%] | inhibition in vivo [4] [%] | inhibition in vivo at 300 mg/kg [1] [%] | inhibition in vivo [2] [%] | further results |
| --- | --- | --- | --- | --- | --- | --- | --- |
| 11-methyl-3-methoxydibenz[b,f][1,4]oxazepine-8-carboxylic acid [Compound 7 (Table 1)] |  |  |  |  |  |  | Percent Reduction TBA (x ± S.E.) [1]: 61.1%; Percent Reduction TG (x ± S.E.) [2]: 17.8% |
| CCOC(=O)c1ccc2c(c1)N=C(C)c1ccc(C)cc1O2 [Compound 3 (Table 3)] | 50 | 55 | 43 |  |  |  |  |
| CCOC(=O)c1ccc2c(c1)N=Cc1ccc(C)cc1O2 [Compound 3] |  |  |  | 17.8 | 23 | 18.7 | Percent Reduction BG (x ± S.E.) [5]: 16.5% |
| CCOC(=O)c1ccc2c(c1)N=C(CC)c1ccc(C)cc1O2 [Compound 4 (Table 1)] | 50 | 60 | 47 |  |  |  |  |
| CCOC(=O)c1ccc2c(c1)N=C(C)c1cccc(C)c1O2 [Compound 4 (Table 3)] | 51 | 60 | 48 |  |  |  |  |
| CCOC(=O)c1ccc2c(c1)N=C(C)c1cccc(OC)c1O2 [Compound 5 (Table 3)] | 35 | 45 | 30 |  |  |  |  |
| CCOC(=O)c1ccc2c(c1)N=C(CC)c1ccc(OC)cc1O2 [Compound 6] |  |  |  | 19.5 | 54 | 19.6 |  |
| COc1ccc2c(c1)Oc1ccc(C(=O)O)cc1N=C2C [Compound 7] |  |  |  | 17.3 | 64.8 | 18.8 | Percent Reduction BG (x ± S.E.) [5]: 15.7% |
| CC1=Nc2cc(C(=O)O)ccc2Oc2cc(C)ccc21 [Compound 8] |  |  |  | 18.6 | 52 | 19.3 | Percent Reduction BG (x ± S.E.) [5]: 16.3% |
| CCC1=Nc2cc(C(=O)O)ccc2Oc2cc(OC)ccc21 [Compound 9] |  |  |  | 17.9 | 67.7 | 18.5 | Percent Reduction BG (x ± S.E.) [5]: 18.4% |
| COC(=O)c1ccc2c(c1)N=Cc1cccc(OC)c1O2 [Compound 10] | 36 | 38 | 34 | 20.7 | 50.3 | 24.5 |  |
| CCCOC(=O)c1ccc2c(c1)N=Cc1cccc(OC)c1O2 [Compound 11] | 43 | 42 | 40 | 19.2 | 38.6 | 21.3 |  |
| CCCCOC(=O)c1ccc2c(c1)N=Cc1cccc(OC)c1O2 [Compound 12] | 35 | 43 | 37 | 17.4 | 19.7 | 19.3 |  |
| O=C(O)c1ccc2c(c1)N=Cc1cc(Cl)ccc1O2 [Compound 13] |  |  |  | 14.5 | 18.3 | 15.2 | Percent Reduction BG (x ± S.E.) [5]: 10.4% |
| CCOc1cccc2c1Oc1ccc(C(=O)O)cc1N=C2 [Compound 14] |  |  |  | 19.5 | 63.4 | 21.3 | Percent Reduction BG (x ± S.E.) [5]: 18.7% |
| Cc1ccc2c(c1)C=Nc1cc(C(=O)O)ccc1O2 [Compound 15] |  |  |  | 17.7 | 23.8 | 19.4 | Percent Reduction BG (x ± S.E.) [5]: 16.5% |
| CCOC(=O)c1ccc2c(c1)N=C(CC)c1cc(OC)cc(OC)c1O2 [Compound 16 (Table 1)] | 44 | 52 | 47 |  |  |  |  |
| CCOC(=O)c1ccc2c(c1)N=C(CC)c1cc(OC)cc(OC)c1O2 [Compound 16] |  |  |  | 16.4 | 28.5 | 17.8 |  |
| CCOC(=O)c1ccc2c(c1)N=C(C=Cc1ccccc1)c1cc(OC)ccc1O2 [Compound 17 (Table 1)] | 46 | 48 | 45 |  |  |  |  |
| CCOC(=O)c1ccc2c(c1)N=C(C=Cc1ccccc1)c1cc(OC)ccc1O2 [Compound 17] |  |  |  | 17.4 ± 3.5 | 34.4 ± 2.9 | 19.7 ± 4.5 |  |
| CCOC(=O)c1ccc2c(c1)N=C(c1ccccc1)c1ccc(OC)cc1O2 [Compound 18 (Table 1)] | 40 | 50 | 43 |  |  |  |  |
| CCOC(=O)c1ccc2c(c1)N=C(c1ccccc1)c1ccc(OC)cc1O2 [Compound 18] |  |  |  | 18.4 ± 2.9 | 41.7 ± 3.2 | 21.3 ± 3.2 |  |
| CCOC(=O)c1ccc2c(c1)N=C(c1cccc(C)c1)c1ccc(OC)cc1O2 [Compound 19] | 39 | 45 | 41 | 20.1 | 34.9 | 19.7 |  |
| CCCC1=Nc2cc(C(=O)OCC)ccc2Oc2cc(C)ccc21 [Compound 20] | 47 | 60 | 50 | 16.5 | 39.6 | 17.4 |  |
| CC(=O)Oc1ccccc1C(=O)O [aspirin, reference compound] |  |  |  |  |  |  | inhibition at 100 µM ([3]; read-out: Percent Inhibition of Aggregation, ADP): 17%; inhibition at 100 µM ([3]; read-out: Percent Inhibition of Aggregation, Arachidonic acid): 100%; inhibition at 100 µM ([3]; read-out: Percent Inhibition of Aggregation, Collagen): 8% |
| CCOC(=O)C(C)(C)Oc1ccc(Cl)cc1 [chlofibrate, reference compound] |  |  |  | 13.8 |  | 9.5 |  |
| Cc1c(C)c2c(c(C)c1O)CCC(C)(CCCC(C)CCCC(C)CCCC(C)C)O2 (stereo not drawn) [α-tocopherol, reference compound] |  |  |  |  | 51.7 |  |  |
| ethyl 4-methoxydibenz[b,f][1,4]oxazepine-8-carboxylate [Compound 6 (Table 3)] |  |  |  |  |  |  | Percent Reduction TC (x ± S.E.) ([4]; listed as 1): 19.3%; Percent Reduction TC (x ± S.E.) ([4]; listed as 2): 21.4%; Percent Reduction BG (x ± S.E.) ([5]; listed as 1): 15.5%; Percent Reduction BG (x ± S.E.) ([5]; listed as 2): 22.4%; Percent Inhibition of Aggregation, ADP [3, 9]: 20%; Percent Inhibition of Aggregation, Arachidonic acid [3, 10]: 40%; Percent Inhibition of Aggregation, Collagen [3, 11]: 25%; Percent Reduction TBA (x ± S.E.) ([1]; listed as 1): 12.3%; Percent Reduction TBA (x ± S.E.) ([1]; listed as 2): 25.5%; Percent Reduction TG (x ± S.E.) ([2]; listed as 1): 20.8%; Percent Reduction TG (x ± S.E.) ([2]; listed as 2): 23.5% |
| ethyl 11-methyl-3-methoxydibenz[b,f][1,4]oxazepine-8-carboxylate [Compound 5 (Table 1)] |  |  |  |  |  |  | Percent Reduction TC (x ± S.E.) [4]: 18.4%; Percent Inhibition of Aggregation, ADP [3, 9]: 45%; Percent Inhibition of Aggregation, Arachidonic acid [3, 10]: 63%; Percent Inhibition of Aggregation, Collagen [3, 11]: 50%; Percent Reduction TBA (x ± S.E.) [1]: 35.2%; Percent Reduction TG (x ± S.E.) [2]: 18.7% |
